Values after ≈ are worked out from the molar mass of the structure shown.
How the values were obtained:
Klebsiella pneumoniae [1] = test: Antimicrobial activity against Klebsiella pneumoniae isolate M1 harboring qnrB19 gene by agar dilution method; type: functional
Klebsiella pneumoniae [2] = test: Antimicrobial activity against Klebsiella pneumoniae isolate Y1 harboring qnrB19 gene by agar dilution method; type: functional
Klebsiella pneumoniae [3] = test: Antimicrobial activity against Klebsiella pneumoniae isolate C2 harboring qnrS1 gene by agar dilution method; type: functional
Klebsiella oxytoca [4] = test: Antimicrobial activity against Klebsiella oxytoca isolate M2 harboring qnrS1 gene by agar dilution method; type: functional
Klebsiella pneumoniae [5] = test: microbe, parasite or virus in culture; conditions: isolate M2
Description: Antimicrobial activity against Klebsiella pneumoniae isolate M2 harboring qnrS1 gene by agar dilution method

Escherichia coli [6] = test: Antimicrobial activity against qnrB/S-positive Escherichia coli clinical isolate assessed as susceptible isolate; type: functional
Klebsiella pneumoniae [7] = test: Antimicrobial activity against qnrB-positive Klebsiella pneumoniae clinical isolate by agar dilution method; type: functional
Klebsiella pneumoniae [8] = test: Antimicrobial activity against qnrB-positive Klebsiella pneumoniae clinical isolate assessed as resistant isolate; type: functional
Klebsiella pneumoniae [9] = test: Antimicrobial activity against qnrB-positive Klebsiella pneumoniae clinical isolate assessed as susceptible isolate; type: functional
Klebsiella pneumoniae [10] = test: Antimicrobial activity against qnrS-positive Klebsiella pneumoniae clinical isolate by agar dilution method; type: functional
Klebsiella pneumoniae [11] = test: Antimicrobial activity against qnrS-positive Klebsiella pneumoniae clinical isolate assessed as resistant isolate; type: functional
Klebsiella pneumoniae [12] = test: Antimicrobial activity against qnrS-positive Klebsiella pneumoniae clinical isolate assessed as susceptible isolate; type: functional
Klebsiella oxytoca [13] = test: Antimicrobial activity against Klebsiella oxytoca clinical isolate by agar dilution method; type: functional
Klebsiella oxytoca [14] = test: Antimicrobial activity against Klebsiella oxytoca clinical isolate assessed as resistant isolate; type: functional
Klebsiella oxytoca [15] = test: Antimicrobial activity against Klebsiella oxytoca clinical isolate assessed as susceptible isolate; type: functional; conditions: pooled result: one value given for 4 cell lines, strains, targets or settings
Enterobacter cloacae [16] = test: Antimicrobial activity against Enterobacter cloacae clinical isolate by agar dilution method; type: functional
Enterobacter cloacae [17] = test: Antimicrobial activity against Enterobacter cloacae clinical isolate assessed as resistant isolate; type: functional
Escherichia hermannii [18] = test: Antimicrobial activity against Escherichia hermannii clinical isolate by agar dilution method; type: functional; conditions: Atlantibacter hermannii
Escherichia hermannii [19] = test: Antimicrobial activity against Escherichia hermannii clinical isolate assessed as resistant isolate; type: functional, Atlantibacter hermannii
Citrobacter freundii [20] = test: Antimicrobial activity against Citrobacter freundii clinical isolate by agar dilution method; type: functional
Citrobacter freundii [21] = test: Antimicrobial activity against Citrobacter freundii clinical isolate assessed as resistant isolate; type: functional
Escherichia coli [22] = test: Antimicrobial activity against Escherichia coli isolate Y2 harboring qnrS1 gene by agar dilution method; type: functional
Citrobacter freundii [23] = test: Antimicrobial activity against Citrobacter freundii isolate V1 harboring qnrB10 gene by agar dilution method; type: functional
Klebsiella oxytoca [24] = test: Antimicrobial activity against Klebsiella oxytoca isolate M1 harboring qnrB19 gene by agar dilution method; type: functional
Enterobacter cloacae [25] = test: Antimicrobial activity against Enterobacter cloacae isolate V1 harboring qnrB2 gene by agar dilution method; type: functional
Escherichia hermannii [26] = test: Antimicrobial activity against Escherichia hermannii isolate C1 harboring qnrB19 gene by agar dilution method; type: functional; conditions: Atlantibacter hermannii
Escherichia coli [27] = test: Antimicrobial activity against Escherichia coli isolate V1 harboring qnrB19 gene by agar dilution method; type: functional
Escherichia coli [28] = test: Antimicrobial activity against Escherichia coli isolate M1 harboring qnrB19 gene by agar dilution method; type: functional
Escherichia coli [29] = test: Antimicrobial activity against Escherichia coli isolate C1 harboring qnrB19 gene by agar dilution method; type: functional
Escherichia coli [30] = test: Antimicrobial activity against Escherichia coli isolate Y1 harboring qnrB19 gene by agar dilution method; type: functional
Escherichia coli [31] = test: Antimicrobial activity against Escherichia coli isolate Y3 harboring qnrS1 gene by agar dilution method; type: functional
Escherichia coli [32] = test: Antimicrobial activity against Escherichia coli isolate M2 harboring qnrS1 gene by agar dilution method; type: functional
Escherichia coli [33] = test: Antimicrobial activity against Escherichia coli isolate M3 harboring qnrS1 gene by agar dilution method; type: functional
Klebsiella pneumoniae [34] = test: Antimicrobial activity against Klebsiella pneumoniae isolate Y2 harboring qnrS1 gene by agar dilution method; type: functional
Klebsiella pneumoniae [35] = test: Antimicrobial activity against Klebsiella pneumoniae isolate V2 harboring qnrS1 gene by agar dilution method; type: functional
Escherichia coli [36] = test: Antimicrobial activity against qnrB-positive Escherichia coli clinical isolate by agar dilution method; type: functional
Escherichia coli [37] = test: Antimicrobial activity against qnrB-positive Escherichia coli clinical isolate assessed as resistant isolate; type: functional
Escherichia coli [38] = test: Antimicrobial activity against qnrB-positive Escherichia coli clinical isolate assessed as susceptible isolate; type: functional
Escherichia coli [39] = test: Antimicrobial activity against qnrS-positive Escherichia coli clinical isolate by agar dilution method; type: functional
Escherichia coli [40] = test: Antimicrobial activity against qnrS-positive Escherichia coli clinical isolate assessed as resistant isolate; type: functional
Escherichia coli [41] = test: Antimicrobial activity against qnrS-positive Escherichia coli clinical isolate assessed as susceptible isolate; type: functional
Escherichia coli [42] = test: Antimicrobial activity against qnrB/S-positive Escherichia coli clinical isolate by agar dilution method; type: functional
Escherichia coli [43] = test: Antimicrobial activity against qnrB/S-positive Escherichia coli clinical isolate assessed as resistant isolate; type: functional
Klebsiella pneumoniae [44] = test: microbe, parasite or virus in culture; conditions: isolate V1
Description: Antimicrobial activity against Klebsiella pneumoniae isolate V1 harboring qnrB2 gene by agar dilution method

O=C(O)c1cn(C2CC2)c2cc(N3CCNCC3)c(F)cc2c1=O [CIPROFLOXACIN]
MIC (Klebsiella pneumoniae [1]): 2 µg/mL (≈ 6.04 µM) | MIC (Klebsiella pneumoniae [2]): 2 µg/mL (≈ 6.04 µM) | MIC (Klebsiella pneumoniae [3]): 2 µg/mL (≈ 6.04 µM) | MIC (Klebsiella oxytoca [4]): 4 µg/mL (≈ 12.1 µM) | MIC (Klebsiella pneumoniae [5]): 4 µg/mL (≈ 12.1 µM)

CCn1cc(C(=O)O)c(=O)c2ccc(C)nc21 [NALIDIXIC ACID]
Activity (Escherichia coli [6]): 50% | MIC (Klebsiella pneumoniae [7]): 16 µg/mL (≈ 68.9 µM) | Activity (Klebsiella pneumoniae [8]): 80% | Activity (Klebsiella pneumoniae [9]): 20% | MIC (Klebsiella pneumoniae [10]): 16 µg/mL (≈ 68.9 µM) | Activity (Klebsiella pneumoniae [11]): 87% | Activity (Klebsiella pneumoniae [12]): 13% | MIC (Klebsiella oxytoca [13]): 16 µg/mL (≈ 68.9 µM) | Activity (Klebsiella oxytoca [14]): 57% | Activity (Klebsiella oxytoca [15]): 43% | MIC (Enterobacter cloacae [16]): 16 µg/mL (≈ 68.9 µM) | Activity (Enterobacter cloacae [17]): 57% | MIC (Escherichia hermannii [18]): 16 µg/mL (≈ 68.9 µM) | Activity (Escherichia hermannii [19]): 57% | MIC (Citrobacter freundii [20]): 16 µg/mL (≈ 68.9 µM) | Activity (Citrobacter freundii [21]): 57% | MIC (Escherichia coli [22]): 16 µg/mL (≈ 68.9 µM) | MIC (Citrobacter freundii [23]): 16 µg/mL (≈ 68.9 µM) | MIC (Klebsiella oxytoca [24]): 16 µg/mL (≈ 68.9 µM) | MIC (Enterobacter cloacae [25]): 32 µg/mL (≈ 138 µM) | MIC (Escherichia hermannii [26]): 32 µg/mL (≈ 138 µM) | MIC (Klebsiella pneumoniae [1]): 32 µg/mL (≈ 138 µM) | MIC (Klebsiella pneumoniae [2]): 64 µg/mL (≈ 276 µM) | MIC (Escherichia coli [27]): 32 µg/mL (≈ 138 µM) | MIC (Escherichia coli [28]): 16 µg/mL (≈ 68.9 µM) | MIC (Escherichia coli [29]): 32 µg/mL (≈ 138 µM) | MIC (Escherichia coli [30]): 32 µg/mL (≈ 138 µM) | MIC (Escherichia coli [31]): 16 µg/mL (≈ 68.9 µM) | MIC (Escherichia coli [32]): 16 µg/mL (≈ 68.9 µM) | MIC (Escherichia coli [33]): 32 µg/mL (≈ 138 µM) | MIC (Klebsiella pneumoniae [34]): 32 µg/mL (≈ 138 µM) | MIC (Klebsiella pneumoniae [3]): 32 µg/mL (≈ 138 µM) | MIC (Klebsiella pneumoniae [35]): 16 µg/mL (≈ 68.9 µM) | MIC (Klebsiella oxytoca [4]): > 128 µg/mL | MIC50 (Escherichia coli [36]): 32 µg/mL (≈ 138 µM) | MIC90 (Escherichia coli [36]): > 128 µg/mL | Activity (Escherichia coli [37]): 87% | Activity (Escherichia coli [38]): 13% | MIC (Escherichia coli [39]): 16 µg/mL (≈ 68.9 µM) | Activity (Escherichia coli [40]): 0% | Activity (Escherichia coli [41]): 100% | MIC (Escherichia coli [42]): 16 µg/mL (≈ 68.9 µM) | Activity (Escherichia coli [43]): 50% | MIC (Klebsiella pneumoniae [44]): 32 µg/mL (≈ 138 µM) | MIC (Klebsiella pneumoniae [5]): 32 µg/mL (≈ 138 µM)

C[C@H]1COc2c(N3CCN(C)CC3)c(F)cc3c(=O)c(C(=O)O)cn1c23.C[C@H]1COc2c(N3CCN(C)CC3)c(F)cc3c(=O)c(C(=O)O)cn1c23.O [LEVOFLOXACIN]
Activity (Escherichia coli [6]): 100% | Activity (Klebsiella pneumoniae [8]): 0% | Activity (Klebsiella pneumoniae [9]): 100% | Activity (Klebsiella pneumoniae [11]): 13% | Activity (Klebsiella pneumoniae [12]): 87% | MIC (Klebsiella oxytoca [13]): 0.25 µg/mL | Activity (Klebsiella oxytoca [14]): 0% | Activity (Klebsiella oxytoca [15]): 71% | MIC (Enterobacter cloacae [16]): 0.25 µg/mL | Activity (Enterobacter cloacae [17]): 0% | MIC (Escherichia hermannii [18]): 0.25 µg/mL | Activity (Escherichia hermannii [19]): 0% | MIC (Citrobacter freundii [20]): 0.25 µg/mL | Activity (Citrobacter freundii [21]): 0% | MIC (Citrobacter freundii [23]): 0.5 µg/mL | MIC (Klebsiella oxytoca [24]): 0.5 µg/mL | MIC (Enterobacter cloacae [25]): 2 µg/mL | MIC (Escherichia hermannii [26]): 0.25 µg/mL | MIC (Klebsiella pneumoniae [1]): 2 µg/mL | MIC (Escherichia coli [33]): 2 µg/mL | MIC (Klebsiella pneumoniae [34]): 2 µg/mL | MIC (Klebsiella pneumoniae [3]): 2 µg/mL | MIC (Klebsiella pneumoniae [35]): 2 µg/mL | MIC (Klebsiella oxytoca [4]): 4 µg/mL | MIC50 (Escherichia coli [36]): 1 µg/mL | MIC90 (Escherichia coli [36]): 4 µg/mL | Activity (Escherichia coli [37]): 4% | Activity (Escherichia coli [38]): 79% | Activity (Escherichia coli [40]): 0% | Activity (Escherichia coli [41]): 100% | Activity (Escherichia coli [43]): 0%

Reference: ChEMBL document CHEMBL1649485, “High prevalence of qnr genes in commensal enterobacteria from healthy children in Peru and Bolivia” (2009)
